Molecules are shown by their SMILES.

On to `Nc1nc(N)c2nc(CNc3ccc(Cl)cc3)cnc2n1`, for which the melting point (usually the temperature, or range, at which the solid turns liquid) is above 360 °C.
The result for `Cc1cnc(N2C(=O)C(O)=C(C(=O)c3ccc(C(C)C)cc3)C2c2ccc(OC(F)(F)F)cc2)s1` (centres undefined) reads 243 to 244 °C.
The result for `CCc1nc2c(N)nc3cccnc3c2n1CC1(O)CCN(S(C)(=O)=O)CC1` reads above 255 °C; that for `CCONC(=O)c1c(Cl)ccc2cc(Cl)cnc12`, 140 °C; that for `CC(=O)SCC(CCc1cccc(C)c1)C(=O)O` (centres undefined), 52 to 54 °C.
`CC(O)c1ccc(CCNS(=O)(=O)c2ccccc2)cc1` (centres undefined) showed a melting point of 98 to 100 °C.
Regarding `CC(OC(=O)ON=C(C#N)c1ccccc1)C1CC1` (centres undefined), the melting point lay in the range of 65 to 67 °C.
On to `Cc1cc2c(-c3ccccc3)c(C(=O)O)oc(=O)c2cc1C`, for which the melting point fell in the range of 265 to 268 °C.
The result for `CC(c1oc2ccccc2c(=O)c1-c1cccc(F)c1)n1nc(-c2ccc(N(C)C)cc2)c2c(N)ncnc21` (centres undefined) reads 214 to 217 °C.
`NC(=O)CCNc1ccc(OC(F)(F)F)cc1` registered a melting point of 76 °C.
The result for `COCn1cnc(Cl)c1Cl` reads 41 to 44 °C; that for `CC(C)(C)OC(=O)N1CCCN(c2ccc([N+](=O)[O-])cc2)CC1`, 128 to 130 °C.
With `CC1CN(Cc2ccccc2)CC(NC(=O)c2n[nH]c3ccccc23)CN1C` (centres undefined) the figure was 162 to 163 °C; with `Cn1cc(-c2cc3cccnc3[nH]2)c2cc(C(=O)O)ccc21`, above 300 °C; with `COc1cc2nccn2c(OC)n1`, 120 to 121 °C.
With `COC(=O)C1CN2c3c(cc(F)c(OS(C)(=O)=O)c3CCN2C)C1=O` (centres undefined) the figure was 247 to 250 °C.
Take `O=c1oc(-c2ccccc2)cc(O)c1SCc1cccc(Oc2ccccc2)c1`: the melting point fell in the range of 131 to 133 °C.
The result for `c1ccc(CN2CCOC(c3ccccc3)(c3ccccc3)CC2)cc1` reads 72 to 75 °C; that for `CC(=O)Nc1nc2c(s1)-c1c(cnn1-c1ccc(Cl)cc1)C2`, 296 to 305 °C.
The result for `N#CCCn1cnc2ccccc21` reads 108 to 110 °C.
Compound `COC(=O)C(Br)c1ccc(S(C)(=O)=O)cc1` (centres undefined) showed a melting point of 81.8 to 83.3 °C.
`Cn1nc(-c2ccccc2)c(C=Cc2ccccc2C(=O)O)c1Cl` registered a melting point of 161 to 163 °C.
With `Cc1ccc(S(=O)(=O)N2CCC[C@H]2C(=O)N[C@@H](Cc2ccc(OCCN3CCOCC3)cc2)C(=O)O)cc1` the figure was 99 to 101 °C; with `CC[C@]12CC[C@H]3[C@@H](CC(=C(Br)Br)C4=CC(=O)CC[C@@H]43)[C@@H]1CCC2=O`, 149 to 153 °C.
The result for `CCc1nn(C2CCCC2)c2cc(C(=O)NCCC(=O)O)ccc12` reads 151 to 153 °C; that for `Cc1c(Cl)c(C(C)(C)C)c(Cl)c(C)c1S(=O)(=O)Cl`, 148 °C; that for `C[C@@H]1S[C@@H](C(=O)Nc2ccc(CC3SC(=O)NC3=O)cc2)Cc2cc3c(cc2C1=O)OCO3` (some centres undefined), 139 to 144 °C.
The result for `OCC1OC(c2ccc(F)c(Cc3ccc(-c4nccs4)s3)c2)C(O)C(O)C1O` (centres undefined) reads 162 °C; that for `CC(C)(C)OC(=O)N1CCC2(CC1)CC(c1ccc(C#N)cc1)=NO2`, 169 to 171 °C.
Compound `O=C1c2ccccc2C(=O)c2c1nc1ccc(Cl)cn21` yielded a melting point above 300 °C.
Take `O=[N+]([O-])c1cccc2c(Cl)c(Cl)cnc12`: the melting point was 123 °C.
`CSc1nccc(-c2c(-c3ccc(F)cc3)ncn2C2CCNCC2)n1`: the melting point lay within 182 to 183 °C.
The result for `Cc1c(-c2ccccc2)oc2c(CS(=O)CCCl)cccc2c1=O` (centres undefined) reads 142 to 145 °C; that for `CS(=O)(=O)N(Cc1cccnc1)c1ccc(Cl)cc1`, 138 to 140 °C; that for `CCCc1n[nH]c(C(N)=O)c1N`, 196 to 201 °C.
`CCCCCCCc1ccc(C=CC(=O)c2ccc(OCC=C(C)C)cc2OCC(=O)O)cc1` gave a melting point of 106 to 107 °C.
`Cn1cc(-c2cc3cccnc3[nH]2)c2cc(OC3(CO)CCC3)ccc21` registered a melting point of 144 to 146 °C.
The result for `NC(=O)c1c(F)cc(NC2CCNCC2)cc1F` reads 166 to 168 °C.
With `Cc1ccc(-c2[nH]nc3c2Cc2ccccc2-3)cc1` the figure was 250 to 252 °C; with `c1ccc(-c2ncc(-c3n[nH]c(-c4cccnc4)n3)cn2)cc1`, 322 to 333 °C; with `O=C1OC(Cc2ccccc2)=NC1=Cc1cccs1`, 193 to 195 °C.
With `CCOC(=O)CCc1cc([N+](=O)[O-])ccc1O` the figure was 199 to 200 °C; with `CN1CCCC1=C(C#N)c1ccc([N+](=O)[O-])cc1`, 67 °C; with `Nc1cc(Cl)c(Cl)cc1I`, 79.5 to 80.5 °C.
The compound `Nc1ncnc2c1ncn2Cc1nc2ccc(Cl)cc2c(=O)n1-c1ccccc1Cl` gave a melting point of 294 to 295 °C.
The result for `O=C1C(=O)c2ccccc2C2=C1SCC1(CCN(C(=O)c3cccc([N+](=O)[O-])c3)CC1)O2` reads 160 to 162 °C; that for `COc1cc(Nc2c(C#N)cnc3cc(-c4ccc(N5CCOCC5)cc4)ccc23)c(Cl)cc1Cl`, 162 to 164 °C; that for `O=C1N=C(N2CCCC2)SC1Cc1cccc(-c2ccc(O)c(C34CC5CC(CC(C5)C3)C4)c2)c1` (centres undefined), 153 to 154 °C.
The result for `COC(=S)NC[C@H]1CN(c2ccc(-c3nc(Cn4cncn4)cs3)c(F)c2)C(=O)O1` reads 189 to 191 °C; that for `COc1ccc(C(=O)N(C(=O)c2ccc(OC)cc2)c2nc3ccc([N+](=O)[O-])cc3c(NCc3ccccc3)c2C#N)cc1`, 145 to 148 °C.
With `O=C(Nc1nc(-c2ccccc2)cs1)Nc1nc(-c2ccccc2)cs1` the figure was 285 to 287 °C; with `Cc1c(C#N)sc2nc(-c3ccncc3)nc(N3CCOCC3)c12`, above 250 °C.
Take `CC(C)OC(=O)c1cc(-n2c(=O)c3c(n(C)c2=O)CCS3)c(F)cc1Cl`: the melting point lay in the range of 156 to 158 °C.
The result for `COc1c(C)cc(C(=O)O)cc1-c1ccccc1` reads 165 to 168 °C.
With `O=CC12CC(c3ccccc31)c1ccccc12` the figure was 102 °C; with `CCCCNC(=O)OCC(=NNC(N)=S)c1ccccc1`, 103 to 116 °C; with `CCOc1ccc(-c2cc(C(F)(F)F)n3ncc(-c4cccnc4)c3n2)cc1C(F)(F)F`, 178 °C.
For `COCCNC(=O)c1n[nH]cc1NC(=O)c1ccccn1`, the melting point fell in the range of 166 to 167 °C.
With `CN1CCN(c2cc(Cl)cc3c2c(=O)n(CC2CCCCC2)c(=O)n3Cc2ccccc2)CC1` the figure was 163 to 169 °C.
The result for `CC(C)(C)OC(=O)N1[C@@H](C2CC2)[C@H](C(=O)O)OC1(C)C` reads 104 to 108 °C; that for `CN1CCN(c2ccc(/C=C/c3cc(/C=C/c4ccc5cc[nH]c5c4)[nH]n3)cc2)CC1`, 192 to 198 °C.
Regarding `CCOc1ccccc1NC(=O)C(C)(C)CCCOc1cc(C)ccc1C`, the melting point was 59 to 60 °C.
With `CN1C(=O)C(c2ccc(OC(F)F)cc2)(C23CC4CC(CC(C4)C2)C3)N=C1N` (centres undefined) the figure was 216 to 218 °C; with `CCc1c(OC)cc(C2CNC(=O)C2)cc1OC` (centres undefined), 156 °C.

The values are drawn from a melting point compilation (Tetko et al.; mined from patent text by program, amines drawn as free bases though some values may be those of a salt).
